Marks after values point to notes of the source that are not given here.
Experiments:
[1] = tested on: adult patients with MDS; assay: Randomized open-label controlled clinical study of decitabine plus supportive care in MDS patients; format: in vivo, human
From the text: A randomized open-label, controlled clinical study at 23 sites evaluated 170 adult patients with MDS meeting French-American-British (FAB) classification and International Prognostic Scoring System (IPSS) High-Risk, Intermediate-2 and Intermediate-1 prognostic scores.
Eighty-nine patients were randomized to decitabine therapy plus supportive care (only 83 received drug), and 81 to Supportive Care (SC) alone. Patients with Acute Myeloid Leukemia (AML) were not intended to be included.
Decitabine was supplied as a lyophilized powder, 50 mg in 20 mL vials, for reconstitution and injection. Decitabine was reconstituted with 10 mL of Sterile Water for Injection USP to yield a solution of 5 mg/mL decitabine and 6.8 mg/mL KH2PO4. The reconstituted solution was further diluted for intravenous infusion with prechilled (2-8° C.) 0.9% Sodium Chloride solution USP. To slow degradation of study drug, infusion solution was refrigerated at 2-8° C. until administration, for a maximum of 10 hours.
Patients randomized to the decitabine arm received decitabine intravenously infused at a dose of 15 mg/m^2 over a three-hour period, every eight hours, for 3 consecutive days (1 cycle). Each administration of decitabine at a dose of 15 mg/m^2 infused over a three-hour period was a continuous infusion without changing the infusion bag. The total amount of decitabine per day was 45 mg/m^2; the total dose per cycle was 135 mg/m^2. […] For patients with inadequate counts 6 weeks after treatment, the study protocol specified that blood counts be repeated at least weekly during the following two-week interval, and that a reduced-dose cycle (11 mg/m^2 over a three-hour period, every eight hours, for 3 consecutive days) was to be administered if blood counts recovered to within acceptable limits (as defined above) between week 6 and 8.
Delayed myelotoxicity, with a neutrophil nadir reached between about day 18-24, is the primary toxicity of decitabine. Cytopenias, however, are also a hallmark of the MDS disease process, making it difficult to distinguish between treatment-related neutropenia and disease progression. Accordingly, the protocol required that patients showing persistent neutropenia (ANC <1,000/μL) or thrombocytopenia (platelets <50,000/μL) beyond 8 weeks following a decitabine cycle undergo bone marrow aspiration and biopsy. Upon a finding of no disease progression (i.e. only bone marrow aplasia), blood counts were to be monitored for an additional two weeks, and a reduced-dose cycle (as defined above) was to be administered if blood counts recovered to within acceptable limits (as defined above) during weeks 8-10. Patients showing neutropenia or thrombocytopenia beyond 10 weeks were to receive no further decitabine treatment.
Supportive care consisted of blood and blood product transfusions, prophylactic antibiotics, and hematopoietic growth factors. Co-primary endpoints of the study were overall response rate (CR+PR) and time to AML or death. Responses were classified with the MDS International Working Group (IWG) criteria; patients were required to be RBC and platelet transfusion independent during the time of response.

[2] = tested on: adult patients with MDS; settings: about; after a decitabine cycle; cited from earlier work
[3] = tested on: cytidine deaminases; settings: enzymatic degradation by cytidine deaminases, particularly in the small intestine; cited from earlier work
[4] = ITT, N = 89, 15 mg/m^2 3 hr iv infusion every 8 hrs for 3 days
[5] = ITT, N = 89, listed as decitabine
[6] = patients evaluable for response (confirmed MDS at baseline, at least 2 courses)
[7] = patients with adjudicated baseline diagnosis of AML
[8] = patients with cytogenetic abnormalities, MDS IWG criteria

Nc1ncn([C@H]2C[C@H](O)[C@@H](CO)O2)c(=O)n1 [Decitabine, 5-aza-2′-deoxycytidine]
Response by IPSS Classification (CR + PR) ([1]; High Risk): (13%) | Response by IPSS Classification (CR + PR), responders/patients ([1]; High Risk): 3/23 | Median Duration of (CR + PR + HI) response ([1]; ITT): 253 days | Median time to (CR + PR + HI) response ([1]; ITT): 44 days | Complete Response (CR) ([1]; ITT, N = 89): (9%) | Complete Response (CR), number of patients ([1]; ITT, N = 89): 8 | Hematologic Improvement (HI) ([1]; ITT, N = 89): (12%) | Hematologic Improvement (HI), number of patients ([1]; ITT, N = 89): 11 | Overall Improvement Rate (CR + PR + HI) ([1]; ITT, N = 89): (29%)** | Overall Improvement Rate (CR + PR + HI), number of patients ([1]; ITT, N = 89): 26 | Partial Response (PR) ([1]; ITT, N = 89): (8%) | Partial Response (PR), number of patients ([1]; ITT, N = 89): 7 | Overall Response Rate (CR + PR) [1, 4]: 17% | Overall Response Rate (CR + PR), number of patients [1, 4]: 15 | Hematologic Improvement (HI) [1, 5]: 12% | Overall Improvement Rate (CR + PR + HI) [1, 5]: 29% | Response by IPSS Classification (CR + PR) ([1]; Int-1): (14%) | Response by IPSS Classification (CR + PR), responders/patients ([1]; Int-1): 4/28 | Response by IPSS Classification (CR + PR) ([1]; Int-2): (21%) | Response by IPSS Classification (CR + PR), responders/patients ([1]; Int-2): 8/38 | Patients who became transfusion independent ([1]; RBC transfusion dependent at baseline): 39% | RBC and platelet transfusion status of responders ([1]; all 15 responders, in the absence of growth factors): remained or became RBC and platelet transfusion independent | Quality of Life assessment (EORTC scale) ([1]; baseline, end of each treatment cycle and post-treatment): less dyspnea, less fatigue and better physical functioning and global health status | Median time to AML or death ([1]; decitabine arm, p=0.160, ns vs SC): 340 days | Cycle by which all responders had responded ([1]; decitabine patients who responded): by the fourth cycle | Median Duration of (CR + PR) response ([1]; decitabine responders): 266 days | Median time to (CR + PR) response ([1]; decitabine responders): 89 days | Overall response rate [1, 6]: 21% | Overall response rate, responders/patients [1, 6]: 12/56 | Objective response (CR or PR) [1, 7]: 56% | Objective response (CR or PR), responders/patients [1, 7]: 5/9 | Major cytogenetic responses [1, 8]: 21% | Major cytogenetic responses, responders/patients [1, 8]: 10/48 | Minor cytogenetic response, number of patients [1, 8]: one | Patients who became transfusion dependent ([1]; transfusion independent at baseline): 15% | Neutrophil nadir (delayed myelotoxicity, primary toxicity) [2]: 18 to 24 days | Oral bioavailability [3]: reduced oral bioavailability
